In patent US20220162191A1, “SMALL MOLECULE MODULATORS OF IL-17” (LEO PHARMA A/S, priority 2019, published 2022):

Molecular target: T1, human IL-17AA (Homo sapiens, UniProt Q16552)
T1 construct: host or cells: HEK (human embryonic kidney) cells
T1 sequence (Q16552 24-155) 1: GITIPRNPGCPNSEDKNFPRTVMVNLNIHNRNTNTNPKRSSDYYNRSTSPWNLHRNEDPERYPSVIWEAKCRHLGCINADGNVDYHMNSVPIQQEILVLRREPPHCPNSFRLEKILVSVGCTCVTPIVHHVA
T1 sequence (Q16552 24-155) 2: T1 sequence (Q16552 24-155) 1
Experiment: IL-8 release assay in human epithelial keratinocytes adult (HEKa)
Format: cell-based
Conditions: 3 ng/ml human IL-17AA + 10 ng/ml human TNFalpha, 68-72 h, IL-8 by HTRF, read-out: Rel EC50 L-8 release assay
Procedure, shortened: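 IL-8 secretion, quantified by HTRF (665/620 nm) as percent of controls, served as the readout after 68–72 h culture of HEKa cells with compound plus IL-17AA (3 ng/ml final) and TNF-alpha (10 ng/ml final). Four-parameter logistic curves gave relative IC50 and Emax.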

**Q.** With `Cc1ncn(C)c1-c1ccc(NC(=O)[C@@H](NC(=O)OC2CC2)[C@@H]2CCCc3ccc(-c4ccnc(N5CCN(C)CC5)c4)cc32)cc1` [Example 32, cyclopropyl N-[(1S)-2-[4-(3,5-dimethylimidazol-4-yl)anilino]-1-[(1R)-7-[2-(4-methylpiperazin-1-yl)-4-pyridyl]tetralin-1-yl]-2-oxo-ethyl]carbamate] as the compound, how does the EC50 read?
**A.** 100 to 1000 nM

**Q.** Which EC50 does the source give for `Cc1n[nH]c(C)c1-c1ccc(NC(=O)[C@@H](NC(=O)c2ccnn2C)[C@@H]2CCc3ccc(-c4cnn(C5CCC5)c4)cc32)cc1` [Example 5, N-[(1S)-1-[(1R)-6-(1-cyclobutylpyrazol-4-yl)indan-1-yl]-2-[4-(3,5-dimethyl-1H-pyrazol-4-yl)anilino]-2-oxo-ethyl]-2-methyl-pyrazole-3-carboxamide] here?
**A.** < 100 nM

**Q.** For `Cc1cnn(C)c1-c1ccc(NC(=O)[C@H](Cc2cc(-c3ccc(=O)n(C(C)C)c3)ccc2Cl)NC(=O)c2cocn2)cc1` [Example 333, N-[(1S)-1-[[2-chloro-5-(1-isopropyl-6-oxo-3-pyridyl)phenyl]methyl]-2-[4-(2,4-dimethylpyrazol-3-yl)anilino]-2-oxo-ethyl]oxazole-4-carboxamide], which EC50 is on record?
**A.** > 1000 nM

**Q.** `CC(C)n1cc(-c2ccc(Cl)c(CC(NC(=O)OC(C)(C)C)C(=O)Nc3ccc(-c4cncn4C)c(Cl)c3)c2)ccc1=O` (stereo not drawn) [Example 101, tert-butyl N-[1-[[2-chloro-5-(1-isopropyl-6-oxo-3-pyridyl)phenyl]methyl]-2-[3-chloro-4-(3-methylimidazol-4-yl)anilino]-2-oxo-ethyl]carbamate] was tested. Which EC50 did it give?
**A.** > 1000 nM

**Q.** How did the EC50 turn out when `CC(C)n1cc(-c2ccc3c(c2)[C@@H]([C@@H](NC(=O)OC(C)(C)C)C(=O)Nc2ccc(-c4cncn4C)cc2)CCC3)ccc1=O` [Example 45, tert-butyl N-[(1R)-1-[(1S)-7-(1-isopropyl-6-oxo-3-pyridyl)tetralin-1-yl]-2-[4-(3-methylimidazol-4-yl)anilino]-2-oxo-ethyl]carbamate] was run?
**A.** 100 to 1000 nM

**Q.** How did the EC50 turn out when `CC(C)n1cc(-c2ccc(Cl)c(CC(NC(=O)c3ccnn3C)C(=O)Nc3ccc(-c4ncnn4C)cc3)c2)ccc1=O` (stereo not drawn) [Example 301, N-[1-[[2-chloro-5-(1-isopropyl-6-oxo-3-pyridyl)phenyl]methyl]-2-[4-(2-methyl-1,2,4-triazol-3-yl)anilino]-2-oxo-ethyl]-2-methyl-pyrazole-3-carboxamide] was run?
**A.** > 1000 nM

**Q.** Which EC50 does the source give for `CC(C)n1cc(-c2ccc(Cl)c(CC(NC(=O)c3ccnn3C)C(=O)Nc3ccc(-c4cnnn4C)cc3)c2)ccc1=O` (stereo not drawn) [Example 65, N-[1-[[2-chloro-5-(1-isopropyl-6-oxo-3-pyridyl)phenyl]methyl]-2-[4-(3-methyltriazol-4-yl)anilino]-2-oxo-ethyl]-2-methyl-pyrazole-3-carboxamide] here?
**A.** > 1000 nM

**Q.** For `Cc1[nH]ncc1-c1ccc(NC(=O)C(Cc2cc(-c3ccc(=O)n(C(C)C)c3)ccc2Cl)NC(=O)C2(F)CC2)cc1` (stereo not drawn) [Example 129, N-[1-[[2-chloro-5-(1-isopropyl-6-oxo-3-pyridyl)phenyl]methyl]-2-[4-(5-methyl-1H-pyrazol-4-yl)anilino]-2-oxo-ethyl]-1-fluoro-cyclopropanecarboxamide], which EC50 is on record?
**A.** 100 to 1000 nM

**Q.** Which EC50 does the source give for `Cc1n[nH]c(C)c1-c1ccc(NC(=O)[C@@H](NC(=O)c2ccnn2C)[C@@H]2CCCc3ccc(-c4ccc5c(c4)CCNC5)cc32)cc1` [Example 38, N-[(1S)-2-[4-(3,5-dimethyl-1H-pyrazol-4-yl)anilino]-2-oxo-1-[(1R)-7-(1,2,3,4-tetrahydroisoquinolin-6-yl)tetralin-1-yl]ethyl]-2-methyl-pyrazole-3-carboxamide] here?
**A.** < 100 nM

**Q.** With `Cn1cnnc1-c1ccc(NC(=O)C(Cc2cc(-c3cccc(C(C)(C)CO)c3)ccc2Cl)NC(=O)c2ccnn2C)cc1` (stereo not drawn) [Example 164, N-[1-[[2-chloro-5-[3-(2-hydroxy-1,1-dimethyl-ethyl)phenyl]phenyl]methyl]-2-[4-(4-methyl-1,2,4-triazol-3-yl)anilino]-2-oxo-ethyl]-2-methyl-pyrazole-3-carboxamide] as the compound, how does the EC50 read?
**A.** 100 to 1000 nM

**Q.** `Cc1cnn(C)c1-c1ccc(NC(=O)[C@@H](NC(=O)C2(F)CC2)[C@@H]2CCc3ccc(-c4cc(C)c(=O)n(C(C)C)c4)cc32)cc1` [Example 355, N-[(1S)-2-[4-(2,4-dimethylpyrazol-3-yl)anilino]-1-[(1R)-6-(1-isopropyl-5-methyl-6-oxo-3-pyridyl)indan-1-yl]-2-oxo-ethyl]-1-fluoro-cyclopropanecarboxamide] was tested. Which EC50 did it give?
**A.** 100 to 1000 nM

**Q.** For `Cc1n[nH]c(C)c1-c1ccc(NC(=O)[C@H](Cc2cc(-c3ccnc(N4CCSCC4)n3)ccc2Cl)NC(=O)C2(F)CC2)cc1` [Example 314, N-[(1S)-1-[[2-chloro-5-(2-thiomorpholinopyrimidin-4-yl)phenyl]methyl]-2-[4-(3,5-dimethyl-1H-pyrazol-4-yl)anilino]-2-oxo-ethyl]-1-fluoro-cyclopropanecarboxamide], which EC50 is on record?
**A.** < 100 nM

**Q.** Which EC50 does the source give for `Cc1cnn(C)c1-c1ccc(NC(=O)[C@@H](NC(=O)C2(F)CC2)[C@@H]2CCCc3ccc(-c4ccnc(N5C[C@@H]6C[C@H]5CN6)c4)cc32)cc1` [Example 392, N-[(1S)-1-[(1R)-7-[2-[(1S,4S)-2,5-diazabicyclo[2.2.1]heptan-2-yl]-4-pyridyl]tetralin-1-yl]-2-[4-(2,4-dimethylpyrazol-3-yl)anilino]-2-oxo-ethyl]-1-fluoro-cyclopropanecarboxamide] here?
**A.** 100 to 1000 nM

**Q.** With `Cc1nccn1-c1ccc(NC(=O)C(Cc2cc(-c3ccc(=O)n(C(C)C)c3)ccc2Cl)NC(=O)c2ccnn2C)cc1` (stereo not drawn) [Example 68, N-[1-[[2-chloro-5-(1-isopropyl-6-oxo-3-pyridyl)phenyl]methyl]-2-[4-(2-methylimidazol-1-yl)anilino]-2-oxo-ethyl]-2-methyl-pyrazole-3-carboxamide] as the compound, how does the EC50 read?
**A.** > 1000 nM

**Q.** With `Cc1nocc1C(=O)N[C@@H](Cc1cc(-c2ccc(=O)n(C(C)C)c2)ccc1Cl)C(=O)Nc1ccc(-c2ccnn2C)c(O)c1` [Example 71, N-[(1S)-1-[[2-chloro-5-(1-isopropyl-6-oxo-3-pyridyl)phenyl]methyl]-2-[3-hydroxy-4-(2-methylpyrazol-3-yl)anilino]-2-oxo-ethyl]-3-methyl-isoxazole-4-carboxamide] as the compound, how does the EC50 read?
**A.** < 100 nM

**Q.** `CC(C)n1cc(-c2ccc3c(c2)[C@H]([C@H](NC(=O)c2ccnn2C)C(=O)Nc2ccc(-c4cncn4C)cc2)CCC3)ccc1=O` [Example 30, N-[(1S)-1-[(1R)-7-(1-isopropyl-6-oxo-3-pyridyl)tetralin-1-yl]-2-[4-(3-methylimidazol-4-yl)anilino]-2-oxo-ethyl]-2-methyl-pyrazole-3-carboxamide] was tested. Which EC50 did it give?
**A.** < 100 nM

**Q.** Which EC50 does the source give for `Cc1nocc1C(=O)N[C@@H](Cc1cc(-c2ccnc(C(O)C(C)(C)C)c2)ccc1Cl)C(=O)Nc1ccc(-c2nncn2C)cc1` (stereo partly drawn) [Example 81, N-[(1S)-1-[[2-chloro-5-[2-(1-hydroxy-2,2-dimethyl-propyl)-4-pyridyl]phenyl]methyl]-2-[4-(4-methyl-1,2,4-triazol-3-yl)anilino]-2-oxo-ethyl]-3-methyl-isoxazole-4-carboxamide] here?
**A.** 100 to 1000 nM

**Q.** `COc1cc(NC(=O)[C@H](Cc2cc(-c3ccc(=O)n(C(C)C)c3)ccc2Cl)NC(=O)c2conc2C)ccc1-c1ccnn1C` [Example 70, N-[(1S)-1-[[2-chloro-5-(1-isopropyl-6-oxo-3-pyridyl)phenyl]methyl]-2-[3-methoxy-4-(2-methylpyrazol-3-yl)anilino]-2-oxo-ethyl]-3-methyl-isoxazole-4-carboxamide] was tested. Which EC50 did it give?
**A.** > 1000 nM

**Q.** With `CC(c1cc(-c2ccc(=O)n(C(C)C)c2)ccc1Cl)[C@H](NC(=O)OC1CC1)C(=O)Nc1ccc(-c2cncn2C)cc1` (stereo partly drawn) [Example 53, cyclopropyl N-[(1S)-2-[2-chloro-5-(1-isopropyl-6-oxo-3-pyridyl)phenyl]-1-[[4-(3-methylimidazol-4-yl)phenyl]carbamoyl]propyl] carbamate] as the compound, how does the EC50 read?
**A.** 100 to 1000 nM

**Q.** Which EC50 does the source give for `COCOc1ccc(-c2ccc(Cl)c(CC(NC(=O)c3ccnn3C)C(=O)Nc3ccc(-c4nncn4C)cc3)c2)cc1C(=O)N1CCC1` (stereo not drawn) [Example 156, N-[1-[[5-[3-(azetidine-1-carbonyl)-4-(methoxymethoxy)phenyl]-2-chloro-phenyl]methyl]-2-[4-(4-methyl-1,2,4-triazol-3-yl)anilino]-2-oxo-ethyl]-2-methyl-pyrazole-3-carboxamide] here?
**A.** > 1000 nM

**Q.** With `CC(C)n1cc(-c2ccc3c(c2)[C@H]([C@H](NC(=O)OC2CC2)C(=O)Nc2ccc(-c4cncn4C)c(O)c2)CCC3)ccc1=O` [Example 31, cyclopropyl N-[(1S)-2-[3-hydroxy-4-(3-methylimidazol-4-yl)anilino]-1-[(1R)-7-(1-isopropyl-6-oxo-3-pyridyl)tetralin-1-yl]-2-oxo-ethyl]carbamate] as the compound, how does the EC50 read?
**A.** < 100 nM

**Q.** Which EC50 does the source give for `Cc1n[nH]c(C)c1-c1ccc(NC(=O)[C@@H](NC(=O)C2(F)CC2)[C@@H]2CCc3ccc(-c4cc(N5C[C@@H]6C[C@H]5CO6)ccn4)cc32)cc1` [Example 368, N-[(1S)-2-[4-(3,5-dimethyl-1H-pyrazol-4-yl)anilino]-1-[(1R)-6-[4-[(1S,4S)-2-oxa-5-azabicyclo[2.2.1]heptan-5-yl]-2-pyridyl]indan-1-yl]-2-oxo-ethyl]-1-fluoro-cyclopropanecarboxamide] here?
**A.** 100 to 1000 nM

**Q.** For `Cc1n[nH]c(C)c1-c1ccc(NC(=O)[C@@H](NC(=O)c2ccnn2C)[C@@H]2CCc3ccc(-c4cnn(C(C)(C)CN)c4)cc32)cc1` [Example 22, N-[(1S)-1-[(1R)-6-[1-(2-amino-1,1-dimethyl-ethyl)pyrazol-4-yl]indan-1-yl]-2-[4-(3,5-dimethyl-1H-pyrazol-4-yl)anilino]-2-oxo-ethyl]-2-methyl-pyrazole-3-carboxamide], which EC50 is on record?
**A.** 100 to 1000 nM

**Q.** For `Cc1n[nH]c(C)c1-c1ccc(NC(=O)[C@H](Cc2cc(-c3ccnc(N4CCOCC4)c3)ccc2Cl)NC(=O)C2(F)CC2)cc1` [Example 225, N-[(1S)-1-[[2-chloro-5-(2-morpholino-4-pyridyl)phenyl]methyl]-2-[4-(3,5-dimethyl-1H-pyrazol-4-yl)anilino]-2-oxo-ethyl]-1-fluoro-cyclopropanecarboxamide], which EC50 is on record?
**A.** < 100 nM
